{
  "source": "patent US20150005252A1",
  "about": "“COMBINATION THERAPY FOR THE TREATMENT OF CANCER” (TILTAN PHARMA LTD., priority 2012, published 2015)",
  "tested_on": "Mouse pancreatic-adenocarcinoma cell-line PANC02",
  "assay": "Orthotopic PANC02 pancreatic tumor model in mice, IP treatment, tumors excised and weighed on Day 18",
  "format": "in vivo",
  "experimental": "Total study duration was 18 days (Treatment period: 14 days, i.e. two weekly treatment schedules). Tumour cells inoculation day was registered as “Day 1”. The compositions were administered IP six days per week starting on Day 4.\nTumor Cells: Mouse pancreatic-adenocarcinoma cell-line PANC02 (a kind gift from Dr A. Marten, University of Heidelberg, Germany).\nCB6F1 female mice, 21.1 g average body weight, 10 mice per treatment group.\nFive test groups were conducted, each administered with a different treatment composition and schedule as detailed in Tables 1 and 2 below.\nTreatment Groups were administered with either vehicle alone (Group 1), a combination of TL-118 and Gemcitabine (Groups 2 and 3), Gemcitabine alone 9 Group 4) and TL-118 alone (Group 5).\n• In Groups 2 and 5 the 1st day of TL-118 was Wed. while for Group 3 1st day of TL-118 was Thur. No treatment was given on Sat (see also Table 3 below).\nIn Group 2 the treatment started with TL-118 and Gemcitabine was administered on the following day while in Group 3 the treatment started with Gemcitabine administration then TL-118 initiation on the following day (see Table 3 below).\nThe cells were removed from flasks using trypsin. 60 million (60×10^6) cells were counted and re-suspended in 4.5 ml phosphate buffered saline. Before cell spin-down, cells were strained through cell strainer according to the following procedure: • 1. Strainer was placed on 50 ml tube; • 2. Strainer was washed with 5 ml phosphate buffered saline; • 3. Cells detached from flasks in RPMI growth medium were poured over strainer; • 4. Strainer was washed with 5 ml phosphate buffered saline.\nTumor cells (4×10^5 cells, in 30 μl, per animal) are injected into the pancreas using needle 30 G. Tumor cells inoculation to animals was performed under anesthesia (Ketamine 85 mg/kg & Xylasine 5 mg/kg).\nCompositions were administered IP using needle 27 G. Compositions were administered daily from Day 4 for duration of […] (see Table I). Body weights measurements (twice weekly) were used for dosing volume calculations from recent measurement. […]",
  "data": [
    {"smiles": "Nc1ccn([C@@H]2O[C@H](CO)[C@@H](O)C2(F)F)c(=O)n1", "note": "[Gemcitabine, 4-amino-1-(2-deoxy-2,2-difluoro-β-D-erythro-pentofuranosyl)pyrimidin-2(1H)-on]", "values": [
      {"measurement": "representative tumors found at the end of treatment schedule", "setting": "FIGS. 5A-5E, compared with large tumors in vehicle Group 1", "value": "smaller volume tumors"},
      {"measurement": "End Result Effect: tumor size relative to vehicle", "setting": "Table 3, end of study, vehicle: very large tumors", "value": "small tumors relative"},
      {"measurement": "percentage of tumor bearing animals", "setting": "end of study (Day 18), CB6F1 female mice, IP, FIG. 1", "value": "about 80%"}
    ]}
  ]
}
